Structures can show the parent of a compound that is named as a salt.
Legend:
Akt [1] = test: Phosphorylation of Akt in LPS-stimulated CD14+ monocyte (western blot); assay type: cell-based, human; details: 100 ng/mL LPS
[2] = test system: LPS-stimulated peripheral blood mononuclear cell (PBMC); test: Regulation of cytokine profile in LPS-stimulated PBMC (BioPlex / ELISA); assay type: cell-based, human; details: for IL-10 production (ELISA) / IL-12p70 production (ELISA): PBMC pretreated 2 hours at various concentrations, 100 ng/mL LPS, supernatant 24 hours after LPS
Description: A peripheral blood mononuclear cell (PBMC) was separated from blood collected from a healthy volunteer (HV) and a chronic hepatitis B patient by a concentration gradient method. CD3+ T cell, CD19+B cell, CD56+NK cell, and CD14+ monocyte were respectively separated using magnetic antibodies.

[3] = test system: human liver cancer cell line (HepG2); test: Phosphorylation of mTOR pathway proteins in HepG2 (western blot); assay type: cell-based; details: for phosphorylation of Akt and S6K and 4-EBP downstream thereof: HepG2, western blot
Method: After culturing the human liver cancer cell line (HepG2) in LAM, ETV, ADV, and TDF, phosphorylation of Akt in the mTOR pathway and S6K and 4-EBP downstream thereof was analyzed by western blot. Then, the phosphorylation of the above-mentioned proteins was suppressed in ADV and TDF in a dose-dependent manner, but there was no change in LAM and ETV.

[4] = test system: liver cancer cell lines (HepG2, PLC/PRF/5, Huh7, Hep3B, SKHep-1, HLE); test: Antitumor effect in liver cancer cell lines, intracellular ATP amount (CellTiter-Glo); assay type: cell-based; details: cultured 72 hours, all of the cell lines; FIG. 12
HepG2 = test: Subcutaneous HepG2 tumor in immunodeficient mice (NOD-SCID); assay type: in vivo, mouse; details: 90 mg/kg intraperitoneally every 3 days; for subcutaneous tumor diameter: measured 6 weeks after, vs DMSO group, p<0.05 or p<0.005, data not disclosed
Method: 90 mg/kg of DMSO (negative control), ETV, ADV, and TDF were intraperitoneally administered to 6-week-old immunodeficient mice (NOD-SCID), respectively (5 animals in each of the groups), HepG2 (5×10^6 cells) was subcutaneously administered 1 week after the start of administration, and the subcutaneous tumor diameter was measured 6 weeks thereafter. Each drug was intraperitoneally administered every 3 days from the start to the end of observation.

MSK-1 = test: Phosphorylation of MSK-1 in LPS-stimulated CD14+ monocyte (western blot); details: 10 μM, 2 hours, 100 ng/mL LPS, 30 minutes after LPS, FIG. 4B
intestinal cell = details: in vitro system; cited from earlier work
[5] = test system: phosphatidylinositol-3 kinase and phosphoinositide-dependent kinase 1; test: Phosphorylation of proteins upstream of Akt in LPS-stimulated CD14+ monocyte (western blot); details: pretreated 2 hours, 100 ng/mL LPS, 2 hours after LPS, FIG. 7A
Method: An Akt inhibitor 2 (Akt-1/2) and bovine serum albumin (BSA) were respectively used as a positive control and a negative control.
The phosphorylation of several proteins upstream of Akt, such as phosphatidylinositol-3 kinase and phosphoinositide-dependent kinase 1, was analyzed.

LPS-stimulated PBMC = details: PBMC treated ex vivo with nucleic acid analog, IFN-α and LPS; FIG. 2
Method: In the case of interferon (IFN)-α alone, 10, 100, and 1000 U/mL were used.
Many types of cytokines in the culture supernatant were measured using a Bio-Plex Human Cytokine Panel (which enables measurement at one time).
Ex vivo treatment of the PBMC was performed with a nucleic acid analog, IFN-α, and LPS, and the levels of IL-10 and IL-12p70 in the supernatant were measured.

GSK-3β = test: Phosphorylation of GSK-3β in LPS-stimulated CD14+ monocyte (western blot); assay type: cell-based, human; details: 2 hours treatment, 100 ng/mL LPS, 2 hours after LPS, FIG. 4E
[6] = test system: CD14+ monocyte transfected with rictor siRNA; test: IL-10 production in CD14+ monocyte after silencing rictor (mTORC2) by siRNA; assay type: cell-based, human; details: pretreated 2 hours, 100 ng/mL LPS, ELISA 24 hours after LPS, FIG. 10
Method: The results of confirming the expression levels of rictor, raptor, and β-actin 48 hours after transfection are shown. […] Chemically synthesized nucleotide siRNA including control siRNA was obtained from Santa Cruz (Dallas, Tex., USA). A cell was transfected with siRNA using a Nucleofector kit (Lonza, Cologne, Germany).

PTEN = PTEN and pPTEN expression in CD14+ monocyte (western blot of cytosol and nuclear fractions); assay type: cell-based, human; details: pretreated 2 hours, FIG. 9
Description: The results obtained by further fractionating the cell into a cytosol fraction and a nuclear fraction, and performing western blot analysis on each of the obtained fractions are shown. Poly-ADP-ribose polymerase (PARP) is the internal control of a nuclear protein, and β-actin is the internal control of the cytosol fraction. The number n is at least 3.
For the separation of the cytoplasm and the cell membrane, a MEM-PERTMPlus cell membrane protein extraction kit was used, and the protocol indicated by the product was followed. Briefly speaking, the collected cell was washed and then reacted with a buffer (to perforate the cell membrane) at 4° C. for 10 minutes. After centrifuging at 16,000 g for 15 minutes, the supernatant was collected in a new tube (cytoplasmic component). The precipitate (cell membrane) in the tube in the previous step was washed once with the above-mentioned buffer, and then reacted with a cell membrane melting buffer at 4° C. for 30 minutes while occasionally applying vibration. Thereafter, after centrifuging at 16,000 g for 15 minutes, the supernatant was collected in a new tube (cell membrane component). The cytoplasmic and nuclear components were separated using a cytoplasm/nuclear extraction kit. […]

p70S6K = test: Phosphorylation of p70S6K in LPS-stimulated CD14+ monocyte (western blot); details: 100 ng/mL LPS, cell collected 2 hours after LPS, FIG. 4C
[7] = test system: HT1080 cell stably expressing Akt 2-PH-EGFP; test: Transition of Akt to the cell membrane, fluorescent immunochemical staining / confocal microscope; assay type: cell-based; details: treated 2 hours, FIG. 7B
Method: AKT2-PH-EGFP tagged with HA was inserted into a pCSII-EF1α-MCS-IRES2-Blasticidin lentivirus vector. The lentivirus was infected with a HT1080 cell, and the cell was cultured in a DMEM solution containing […] of blasticidin. For observation of the intracellular migration of PH-EGFP, phosphorylated Akt, and Akt-PH-EGFP, after culturing HT1080 cell expressing each of them on a cover glass with DMSO, LAM, ADV, ETV, and TDF for 2 hours, the cell was fixed with 3.7% formalin, and thereafter nuclear staining of phosphorylated AKt (S473) and DAPI were performed to observe under a microscope.

[8] = test system: mouse liver cancer cell lines (MHCF1 and MHCF5) and a mouse colon cancer cell line (CMT-93); test: Phosphorylation of Akt and GSK-3β in mouse cancer cell lines (western blot); assay type: cell-based; details: MHCF1, MHCF5 and CMT-93, western blotting; data not disclosed
IFN-λ3 = details: hepatitis B patients taking the drug; cited from earlier work
Akt1 = Akt1 (Homo sapiens, UniProt P31749); test: Surface plasmon resonance analysis of binding to Akt; details: Akt1 fixed on CM5 sensor chip, 25° C.; FIG. 7C
Chain of Akt1 (P31749 whole entry): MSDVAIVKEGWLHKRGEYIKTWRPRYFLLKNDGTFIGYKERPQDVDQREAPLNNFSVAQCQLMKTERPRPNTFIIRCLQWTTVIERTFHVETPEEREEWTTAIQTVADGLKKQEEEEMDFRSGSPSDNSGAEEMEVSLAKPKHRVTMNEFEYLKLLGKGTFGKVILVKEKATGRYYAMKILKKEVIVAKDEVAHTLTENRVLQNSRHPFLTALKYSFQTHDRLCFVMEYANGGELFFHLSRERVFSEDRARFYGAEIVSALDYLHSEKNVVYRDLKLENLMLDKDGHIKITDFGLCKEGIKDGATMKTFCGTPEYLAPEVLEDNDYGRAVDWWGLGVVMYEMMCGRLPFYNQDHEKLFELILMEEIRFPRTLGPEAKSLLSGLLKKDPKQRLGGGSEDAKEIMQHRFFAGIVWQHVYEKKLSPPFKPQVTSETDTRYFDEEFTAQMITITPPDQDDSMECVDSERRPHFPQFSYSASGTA
Method: The binding affinity of the peptide for the compound was analyzed using a surface plasmon resonance biosensor (Biacore X 100, GE Healthcare). Akt1 or BSA was fixed on the surface of a CM5 sensor chip using an amine coupling kit (GE Healthcare). Compounds at different concentrations, which were diluted with phosphate buffered saline containing 5% DMSO (10 mM phosphate buffer, 2.7 mM KCl, 137 mM NaCl, 0.05% surfactant P20, pH 7.4), were injected into the sensor chip at a flow rate of 20 μL/min at 25° C. for 120 seconds, and subsequently a buffer solution not containing the compounds was applied for 180 seconds. Kinetic parameters were determined by subtracting the bulk effect of DMSO using a reference flow cell and analyzing the data using Biacore X100 evaluation software (GE Healthcare).

ERK = details: CD14+ monocyte, 10 μM, 2 hours, 100 ng/mL LPS, 30 minutes after LPS; FIG. 4B
Akt [9] = test: Phosphorylation of Akt in LPS-stimulated PBMC (western blot); assay type: cell-based, human; details: various concentrations, cell recovered 2 hours after LPS, FIG. 7E
[10] = PBMC from HV, pretreated 2 hours with nucleic acid analog, then LPS, BioPlex cytokine assay, FIG. 1A

NC(=O)c1ncn([C@@H]2O[C@H](CO)[C@@H](O)[C@H]2O)c1N [AICAR, 5-Aminoimidazole-4-carboxamide-1-β-D-ribofuranoside]
phosphorylation of Akt (Akt [1]; CD14+ monocyte pretreated 2 hours at various concentrations, 2 hours after LPS, FIG. 11B): enhanced phosphorylation of Akt in a dose-dependent manner
IL-10 production (ELISA) [2]: inhibited
IL-12p70 production (ELISA) [2]: induced

C=C1[C@H](CO)[C@@H](O)C[C@@H]1n1cnc2c(=O)[nH]c(N)nc21 [ETV, entecavir]
LPS-induced cytokine production (IL-10, IL-12p70, and TNF-α) compared with DMSO [2, 10]: only the same effect as that of DMSO
phosphorylation of Akt and S6K and 4-EBP downstream thereof [3]: no change
number of a survived cell (intracellular ATP amount) [4]: not recognized
subcutaneous tumor diameter (HepG2): not different

Oc1ccc(-c2nc(-c3ccncc3)c(-c3ccc(F)cc3)[nH]2)cc1 [SB202198]
phosphorylation of MSK-1 (MSK-1): inhibited

CC(C)OC(=O)OCOP(=O)(CO[C@H](C)Cn1cnc2c(N)ncnc21)OCOC(=O)OC(C)C [TDF, tenofovir disoproxil fumarate]
IFN-λ3 induction (intestinal cell): induces
phosphorylation of proteins upstream of Akt (phosphatidylinositol-3 kinase and phosphoinositide-dependent kinase 1) [5]: did not inhibit
phosphorylation of Akt, dose dependence (Akt [1]; CD14+ monocyte, 1:3 dilution, FIG. 4D): inhibited the phosphorylation of Akt in a dose-dependent manner
phosphorylation of Akt (Akt [1]; CD14+ monocyte, cell collected 2 hours after LPS, FIG. 4C): inhibited
LPS-mediated IL-12p70 production in combination with IFN-α (LPS-stimulated PBMC): synergistically enhanced
phosphorylation of GSK-3β (GSK-3β): inhibited
restoration of the decrease in IL-10 levels by silencing rictor [6]: not restored
dose dependence of the regulation of IL-12p70, IL-10 and TNF-α ([2]; LPS-stimulated PBMC, 1:3 dilution, FIG. 1C): dose dependent
LPS-induced IL-10 production [2, 10]: inhibited
LPS-induced IL-12p70 production [2, 10]: significantly induced
LPS-induced TNF-α production [2, 10]: significantly induced
PTEN or pPTEN expression level (PTEN): did not affect
phosphorylation of Akt and S6K and 4-EBP downstream thereof [3]: suppressed
phosphorylation of mTOR-related protein (Akt and GSK-3β (S9)) ([3]; HepG2 cell, western blotting, data not disclosed): suppressed
phosphorylation of p70S6K (p70S6K): inhibited
transposition of Akt-PH to the cell membrane ([7]; HT1080 cell, confocal microscope): significantly inhibited
phosphorylation of Akt (Ser 473) in HT-1080 cell ([7]; HT-1080 cell, anti-phospho-Akt staining): inhibited
number of a survived cell (intracellular ATP amount) [4]: significantly reduced
phosphorylation of mTOR-related protein (Akt and GSK-3β (S9)) [8]: not recognized
serum IFN-λ3 value (IFN-λ3): high value
tumor growth in one example of the group (HepG2): did not grow at all
subcutaneous tumor diameter (HepG2): suppressed

C[C@H](Cn1cnc2c(N)ncnc21)OCP(=O)(O)OP(=O)(O)O [TFV, tenofovir monophosphate]
binding to the Akt protein (surface plasmon resonance biosensor) (Akt1): bound to the Akt protein in a dose-dependent manner

N#CC(=C(/N)Sc1ccccc1N)/C(C#N)=C(\N)Sc1ccccc1N [U0126]
phosphorylation of ERK (ERK): inhibited

CCCCCCCCCCCCCCCCCCOP(=O)([O-])OC1CC[N+](C)(C)CC1 [perifosine]
IL-10 production (ELISA) [2]: decreased
IL-12p70 production (ELISA) [2]: increased
phosphorylation of Akt (Akt [9]): inhibited phosphorylation of Akt in a dose-dependent manner

— patent publication US20220143050A1, “mTOR Inhibitor” (priority 2019, published 2022)
